Data on 21 molecules can be found in PubChem BioAssay AID330 (DTP/NCI, 2004).

Molecules are shown by their SMILES. “And” between values parts separate entries of the source, which are not always exact repeats. Equal values may be shown once. Inconclusive results and toxic doses are left out.

The assay deals with P388 leukemia ip, CD2F1 mice, survival T/C. The assay can be described thus: NCI In Vivo Anticancer Drug Screen. Data for tumor model P388 Leukemia (intraperitoneal) in CD2F1 (CDF1) mice. The note with it: endpoint: median survival time, higher = longer survival. The method in brief:
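Mice carrying the transplanted tumor received test compound or vehicle. Survival was recorded in each group, and the value is the treated-group measurement divided by that of the vehicle-treated control group.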

The mark [1] stands for this setting: dose: 50.0 mg/kg/injection, schedule: Q01DX005 (ip), vehicle: Klucel (hydroxypropylcellulose) (HPC).
Where [2] appears, read: dose: 100.0 mg/kg/injection, schedule: Q01DX005 (ip), vehicle: Klucel (hydroxypropylcellulose) (HPC).
Where [3] appears, read: dose: 200.0 mg/kg/injection, schedule: Q01DX005 (ip), vehicle: Klucel (hydroxypropylcellulose) (HPC).
Setting [4] is: dose: 100.0 mg/kg/injection, schedule: Q01DX009 (ip), vehicle: saline with Tween-80.
[5] abbreviates: dose: 200.0 mg/kg/injection, schedule: Q01DX009 (ip), vehicle: saline with Tween-80.
[6] abbreviates: dose: 50.0 mg/kg/injection, schedule: Q01DX009 (ip), vehicle: saline with Tween-80.
The mark [7] stands for this setting: dose: 50.0 mg/kg/injection, schedule: Q01DX009 (ip), vehicle: saline.
Where [8] appears, read: dose: 100.0 mg/kg/injection, schedule: Q01DX009 (ip), vehicle: saline.
[9] abbreviates: dose: 50.0 mg/kg/injection, schedule: Q01DX005 (ip), vehicle: saline with Tween-80.

As to `O=P(c1ccccc1)(c1ccccc1)c1ccccc1OCCCO`, the T/C was 99 % of control under setting [1], 100 % of control under setting [2] and 97 % of control under setting [3].
In the case of `O=C1Nc2ccccc2/C1=N/N=C/c1ccco1`, the T/C (dose: 50.0 mg/kg/injection, schedule: Q01DX009 (ip), vehicle: Klucel (hydroxypropylcellulose) (HPC)) is 96 % of control; the T/C (dose: 100.0 mg/kg/injection, schedule: Q01DX009 (ip), vehicle: Klucel (hydroxypropylcellulose) (HPC)) is 87 % of control; the T/C (dose: 200.0 mg/kg/injection, schedule: Q01DX009 (ip), vehicle: Klucel (hydroxypropylcellulose) (HPC)) was 88 % of control.
In the case of `O=C1c2ccccc2C(=O)N1CN1C(=O)c2ccccc2S1(=O)=O`, the T/C by setting is: under setting [1], 93 % of control; under setting [2], 98 % of control.
Turning to `Cc1cn(C2OC(CO)C(O)C2O)c(=O)[nH]c1=O` (stereo not drawn), the T/C is 90 % of control under setting [4]; 104 % of control (dose: 100.0 mg/kg/injection, schedule: Q04DX003 (ip), vehicle: saline with Tween-80); 104 % of control under setting [5]; 104 % of control (dose: 200.0 mg/kg/injection, schedule: Q04DX003 (ip), vehicle: saline with Tween-80); 100 % of control (dose: 400.0 mg/kg/injection, schedule: Q01DX009 (ip), vehicle: saline with Tween-80); 100 % of control (dose: 400.0 mg/kg/injection, schedule: Q04DX003 (ip), vehicle: saline with Tween-80).
Take `O=C(CNNC(=O)OCc1ccccc1)OCc1ccccc1`: the T/C reads like this: (dose: 12.5 mg/kg/injection, schedule: Q01DX009 (ip), vehicle: other) 95 % of control; (dose: 25.0 mg/kg/injection, schedule: Q01DX009 (ip), vehicle: other) 99 % of control; (dose: 50.0 mg/kg/injection, schedule: Q01DX009 (ip), vehicle: other) 93 % of control; (dose: 100.0 mg/kg/injection, schedule: Q01DX009 (ip), vehicle: other) 96 % of control.
For the molecule `N#CC1(O)CCCCC1`, the T/C is 100 % of control (dose: 2.5 mg/kg/injection, schedule: Q01DX009 (ip), vehicle: saline with Tween-80); 104 % of control (dose: 5.0 mg/kg/injection, schedule: Q01DX009 (ip), vehicle: saline with Tween-80); 104 % of control (dose: 10.0 mg/kg/injection, schedule: Q01DX009 (ip), vehicle: saline with Tween-80).
Take `CC1=CC[C@H]2C(=O)N(CCN(C)C)C(=O)[C@H]2C1`: the T/C reads like this: (dose: 50.0 mg/kg/injection, schedule: Q01DX005 (ip), vehicle: saline) 100 % of control; (dose: 100.0 mg/kg/injection, schedule: Q01DX005 (ip), vehicle: saline) 100 % of control; (dose: 200.0 mg/kg/injection, schedule: Q01DX005 (ip), vehicle: saline) 98 % of control.
Consider `CSc1nc2c(nc(N)n2C2OC(COC(C)=O)C(OC(C)=O)C(OC(C)=O)C2OC(C)=O)c(=O)n1C` (stereo not drawn), for which the T/C reads like this: (dose: 120.0 mg/kg/injection, schedule: Q01DX005 (ip), vehicle: saline with Tween-80) 92 % of control; (dose: 240.0 mg/kg/injection, schedule: Q01DX005 (ip), vehicle: saline with Tween-80) 96 % of control.
Consider `Clc1ccc(CC(Cn2ccnc2)c2ccccc2Cl)cc1` (stereo not drawn), for which the T/C is, setting by setting: under setting [6], 94 % of control; under setting [4], 86 % of control.
As for `COc1cc2c[n+](C)c3ccccc3c2cc1OC`, the T/C was 112 % of control and 115 % of control (dose: 12.5 mg/kg/injection, schedule: Q01DX009 (ip), vehicle: water); 124 % of control (dose: 25.0 mg/kg/injection, schedule: Q01DX009 (ip), vehicle: water); 105 % of control (dose: 100.0 mg/kg/injection, schedule: Q01DX009 (ip), vehicle: water).
For `O=c1c2nccnc2nc2n1CCS2`, the T/C was 100 % of control (dose: 100.0 mg/kg/injection, schedule: Q04DX003 (ip), vehicle: Klucel (hydroxypropylcellulose) (HPC)); 101 % of control (dose: 200.0 mg/kg/injection, schedule: Q04DX003 (ip), vehicle: Klucel (hydroxypropylcellulose) (HPC)); 107 % of control (dose: 400.0 mg/kg/injection, schedule: Q04DX003 (ip), vehicle: Klucel (hydroxypropylcellulose) (HPC)).
As to `O=P(c1ccccc1)(c1ccccc1)c1ccccc1.[Cl][Sn]([c]1ccccc1)([c]1ccccc1)[c]1ccccc1`, the T/C runs as follows: (dose: 100.0 mg/kg/injection, schedule: Q04DX003 (ip), vehicle: saline) 100 % of control; (dose: 200.0 mg/kg/injection, schedule: Q04DX003 (ip), vehicle: saline) 106 % of control; (dose: 400.0 mg/kg/injection, schedule: Q04DX003 (ip), vehicle: saline) 118 % of control.
For `O=C1NS(=O)(=O)Oc2c1ccc1ccccc21`, the T/C (dose: 12.5 mg/kg/injection, schedule: Q01DX009 (ip), vehicle: saline with Tween-80) is 108 % of control; the T/C (dose: 25.0 mg/kg/injection, schedule: Q01DX009 (ip), vehicle: saline with Tween-80) is 99 % of control; the T/C under setting [6] was 96 % of control; the T/C under setting [4] is 96 % of control; the T/C under setting [5] was 110 % of control.
Regarding `N/C=N/O`, the T/C was 101 % of control (dose: 25.0 mg/kg/injection, schedule: Q01DX009 (ip), vehicle: saline); 101 % of control under setting [7]; 111 % of control and 122 % of control under setting [8]; 123 % of control (dose: 174.0 mg/kg/injection, schedule: Q01DX009 (ip), vehicle: saline); 90 % of control (dose: 260.0 mg/kg/injection, schedule: Q01DX009 (ip), vehicle: saline); 161 % of control (dose: 400.0 mg/kg/injection, schedule: Q01DX009 (ip), vehicle: saline).
As for `CCC1(O)CC(c2ccccc2)N(C)C(c2ccccc2)C1` (stereo not drawn), the T/C is 99 % of control under setting [9] and 95 % of control (dose: 100.0 mg/kg/injection, schedule: Q01DX005 (ip), vehicle: saline with Tween-80).
`CCOC(=O)C1OC1(C(F)(F)F)C(F)(F)F` (stereo not drawn): the T/C reads like this: under setting [6], 93 % of control; under setting [4], 98 % of control; under setting [5], 104 % of control.
`COc1ccc(/C(Cc2ccccc2)=N/NS(=O)(=O)c2ccc(C)cc2)cc1`: the T/C under setting [7] was 89 % of control; the T/C under setting [8] was 101 % of control; the T/C (dose: 200.0 mg/kg/injection, schedule: Q01DX009 (ip), vehicle: saline) is 98 % of control.
Regarding `COc1ccc2c(c1OC)C(C(C)=O)N1CCc3cc4c(cc3C1=C2)OCO4` (stereo not drawn), the T/C is, setting by setting: (dose: 0.63 mg/kg/injection, schedule: Q01DX009 (ip), vehicle: distilled water + Tween-80) 106 % of control; (dose: 1.25 mg/kg/injection, schedule: Q01DX009 (ip), vehicle: distilled water + Tween-80) 101 % of control; (dose: 2.5 mg/kg/injection, schedule: Q01DX009 (ip), vehicle: distilled water + Tween-80) 99 % of control; (dose: 5.0 mg/kg/injection, schedule: Q01DX009 (ip), vehicle: distilled water + Tween-80) 96 % of control; (dose: 10.0 mg/kg/injection, schedule: Q01DX009 (ip), vehicle: distilled water + Tween-80) 101 % of control; (dose: 20.0 mg/kg/injection, schedule: Q01DX009 (ip), vehicle: distilled water + Tween-80) 101 % of control.
Regarding `CCOc1ccc(C(C)c2cc3c(cc2OC)OCO3)cc1C` (stereo not drawn), the T/C is, setting by setting: under setting [1], 109 % of control and 113 % of control; under setting [2], 108 % of control and 118 % of control; under setting [3], 116 % of control; (dose: 400.0 mg/kg/injection, schedule: Q01DX005 (ip), vehicle: Klucel (hydroxypropylcellulose) (HPC)) 165 % of control.
Regarding `CNC(=O)OCC1=C(Sc2ccccc2)C(=O)C(OC)=C(OC)C1=O`, the T/C is, setting by setting: (dose: 12.5 mg/kg/injection, schedule: Q01DX005 (ip), vehicle: saline with Tween-80) 106 % of control; (dose: 25.0 mg/kg/injection, schedule: Q01DX005 (ip), vehicle: saline with Tween-80) 108 % of control; under setting [9], 103 % of control and 110 % of control.
With `CCC1(O)CC(OC2CC(N(C)C)C(OC3CC(O)C(OC4CC(O)C(O)C(C)O4)C(C)O3)C(C)O2)c2c(cc3c(c2O)C(=O)c2c(O)ccc(O)c2C3=O)C1C(=O)OC` (stereo not drawn), the T/C runs as follows: (dose: 3.13 mg/kg/injection, schedule: Q04DX003 (ip), vehicle: Klucel (hydroxypropylcellulose) (HPC)) 105 % of control; (dose: 6.25 mg/kg/injection, schedule: Q04DX003 (ip), vehicle: Klucel (hydroxypropylcellulose) (HPC)) 99 % of control; (dose: 12.5 mg/kg/injection, schedule: Q04DX003 (ip), vehicle: Klucel (hydroxypropylcellulose) (HPC)) 105 % of control; (dose: 25.0 mg/kg/injection, schedule: Q04DX003 (ip), vehicle: Klucel (hydroxypropylcellulose) (HPC)) 118 % of control.
